Test results as given in ChEMBL document CHEMBL3352742, “Synthesis, molecular docking and biological evaluation of coumarin derivatives containing piperazine skeleton as potential antibacterial agents” (Bioorg Med Chem, 2014).
≈ marks a conversion by molar mass, not a printed value.

Columns and labels:
[1] = tested on: Staphylococcus aureus; test: Antibacterial against Staphylococcus aureus ATCC 25923 after 24 hrs by two-fold serial dilution method; assay type: functional; conditions: ATCC 25923, 24 h
[2] = tested on: Bacillus subtilis; test: Antibacterial against Bacillus subtilis ATCC 530 after 24 hrs by two-fold serial dilution method; assay type: functional; conditions: ATCC 530, 24 h
[3] = Inhibition of Staphylococcus aureus FabI assessed as oxidation of NADH to NAD+ by spectrophotometrically
[4] = tested on: Escherichia coli; test: Antibacterial against Escherichia coli ATCC 25922 after 24 hrs by two-fold serial dilution method; assay type: functional; conditions: ATCC 25922, 24 h
[5] = tested on: Pseudomonas aeruginosa; test: Antibacterial against Pseudomonas aeruginosa ATCC 27853 after 24 hrs by two-fold serial dilution method; assay type: functional; conditions: ATCC 27853, 24 h
[6] = Cytotoxicity against human macrophages assessed as cell viability after 24 hrs by MTT assay; assay type: functional, cell-based; conditions: Macrophage
[7] = Toxicity in human erythrocyte assessed as hemolysis by measuring hemoglobin release after 3 hrs; assay type: cell-based

Row | Structure (SMILES) | MIC [1] | MIC [2] | IC50 [3] | MIC [4] | MIC [5] | IC50 [6] | LC30 [7]
1 | O=C(COc1cc(=O)oc2ccccc12)N1CCN(c2ccccc2)CC1 | 41.5 µg/mL (≈ 114 µM) | > 50 µg/mL | 45.5 µM | 33.6 µg/mL (≈ 92.3 µM) | > 50 µg/mL | – | –
2 | CC1(C)S[C@@H]2[C@H](NC(=O)Cc3ccccc3)C(=O)N2[C@H]1C(=O)O [PENICILLIN G] | 1.69 µg/mL (≈ 5.04 µM) | 0.752 µg/mL (≈ 2.25 µM) | – | 22.4 µg/mL (≈ 66.9 µM) | 22 µg/mL (≈ 65.7 µM) | 186 µM | > 10 µg/mL
3 | O=c1cc(OCC(O)CN2CCN(c3ccc([N+](=O)[O-])cc3)CC2)c2ccccc2o1 (stereo not drawn) | 2.4 µg/mL (≈ 5.63 µM) | 3.65 µg/mL (≈ 8.58 µM) | 3.82 µM | > 50 µg/mL | 33 µg/mL (≈ 77.6 µM) | 153 µM | > 10 µg/mL
4 | COc1cccc(N2CCN(C(=O)COc3cc(=O)oc4ccccc34)CC2)c1 | 0.837 µg/mL (≈ 2.12 µM) | 6.96 µg/mL (≈ 17.6 µM) | 4.62 µM | > 50 µg/mL | > 50 µg/mL | 141 µM | > 10 µg/mL
5 | O=c1cc(OCC(O)CN2CCN(c3cccc(Cl)c3Cl)CC2)c2ccccc2o1 (stereo not drawn) | 26 µg/mL (≈ 57.8 µM) | 18.2 µg/mL (≈ 40.4 µM) | 12.5 µM | > 50 µg/mL | > 50 µg/mL | – | –
6 | COc1ccc(N2CCN(C(=O)COc3cc(=O)oc4ccccc34)CC2)cc1 | 0.327 µg/mL (≈ 0.829 µM) | 0.861 µg/mL (≈ 2.18 µM) | 0.83 µM | > 50 µg/mL | > 50 µg/mL | 192 µM | > 10 µg/mL
7 | O=c1cc(OCC(O)CN2CCN(c3ccccc3)CC2)c2ccccc2o1 (stereo not drawn) | > 50 µg/mL | 37.9 µg/mL (≈ 99.7 µM) | 47.8 µM | > 50 µg/mL | > 50 µg/mL | – | –
8 | O=C(COc1cc(=O)oc2ccccc12)N1CCN(c2cccc(Cl)c2)CC1 | > 50 µg/mL | 2.94 µg/mL (≈ 7.37 µM) | 26.6 µM | > 50 µg/mL | 46 µg/mL (≈ 115 µM) | – | –
9 | O=C(COc1cc(=O)oc2ccccc12)N1CCN(c2ccc(Cl)cc2)CC1 | > 50 µg/mL | 15.8 µg/mL (≈ 39.5 µM) | 35.5 µM | > 50 µg/mL | > 50 µg/mL | – | –
10 | O=c1cc(OCC(O)CN2CCN(c3ccc(F)cc3)CC2)c2ccccc2o1 (stereo not drawn) | > 50 µg/mL | > 50 µg/mL | 62.9 µM | 40.4 µg/mL (≈ 101 µM) | > 50 µg/mL | – | –
11 | O=c1cc(OCC(O)CN2CCN(c3ccc(Cl)c(Cl)c3)CC2)c2ccccc2o1 (stereo not drawn) | > 50 µg/mL | 0.339 µg/mL (≈ 0.754 µM) | 22.3 µM | > 50 µg/mL | > 50 µg/mL | – | –
12 | Cc1ccc(N2CCN(C(=O)COc3cc(=O)oc4ccccc34)CC2)c(C)c1 | 46.4 µg/mL (≈ 118 µM) | 34.4 µg/mL (≈ 87.7 µM) | 42.5 µM | > 50 µg/mL | > 50 µg/mL | – | –
13 | O=C(COc1cc(=O)oc2ccccc12)N1CCN(c2ccc([N+](=O)[O-])cc2)CC1 | > 50 µg/mL | 1.94 µg/mL (≈ 4.73 µM) | 11.4 µM | > 50 µg/mL | > 50 µg/mL | – | –
14 | COc1ccccc1N1CCN(CC(O)COc2cc(=O)oc3ccccc23)CC1 (stereo not drawn) | 2.52 µg/mL (≈ 6.15 µM) | 3.88 µg/mL (≈ 9.46 µM) | 5.54 µM | > 50 µg/mL | 49.8 µg/mL (≈ 121 µM) | 256 µM | > 10 µg/mL
15 | O=C(COc1cc(=O)oc2ccccc12)N1CCN(c2cccc(C(F)(F)F)c2)CC1 | 1.08 µg/mL (≈ 2.5 µM) | 0.916 µg/mL (≈ 2.12 µM) | 1.82 µM | > 50 µg/mL | > 50 µg/mL | 188 µM | > 10 µg/mL
16 | Cc1ccc(N2CCN(CC(O)COc3cc(=O)oc4ccccc34)CC2)c(C)c1 (stereo not drawn) | 1.44 µg/mL (≈ 3.53 µM) | 2.86 µg/mL (≈ 6.99 µM) | 6.23 µM | > 50 µg/mL | > 50 µg/mL | 127 µM | > 10 µg/mL
17 | COc1ccccc1N1CCN(C(=O)COc2cc(=O)oc3ccccc23)CC1 | 8.19 µg/mL (≈ 20.8 µM) | 11 µg/mL (≈ 27.8 µM) | 7.15 µM | > 50 µg/mL | > 50 µg/mL | 164 µM | > 10 µg/mL
18 | O=c1cc(OCC(O)CN2CCN(c3ccccc3Cl)CC2)c2ccccc2o1 (stereo not drawn) | 11.6 µg/mL (≈ 28.1 µM) | 13.9 µg/mL (≈ 33.6 µM) | 17.7 µM | > 50 µg/mL | > 50 µg/mL | – | –
19 | O=c1cc(OCC(O)CN2CCN(Cc3ccccc3)CC2)c2ccccc2o1 (stereo not drawn) | 23 µg/mL (≈ 58.4 µM) | > 50 µg/mL | 41.3 µM | > 50 µg/mL | > 50 µg/mL | – | –
20 | O=C(COc1cc(=O)oc2ccccc12)N1CCN(c2ccc(Cl)c(Cl)c2)CC1 | > 50 µg/mL | 1.86 µg/mL (≈ 4.29 µM) | 19.8 µM | > 50 µg/mL | 48.1 µg/mL (≈ 111 µM) | – | –
21 | O=C(COc1cc(=O)oc2ccccc12)N1CCN(c2cccc(Cl)c2Cl)CC1 | 23.2 µg/mL (≈ 53.6 µM) | 4.51 µg/mL (≈ 10.4 µM) | 8.41 µM | > 50 µg/mL | > 50 µg/mL | 223 µM | > 10 µg/mL
22 | O=C(COc1cc(=O)oc2ccccc12)N1CCN(c2ccccc2Cl)CC1 | 28.5 µg/mL (≈ 71.4 µM) | 7.18 µg/mL (≈ 18 µM) | 21.9 µM | > 50 µg/mL | > 50 µg/mL | – | –
23 | O=c1cc(OCC(O)CN2CCN(c3cccc(Cl)c3)CC2)c2ccccc2o1 (stereo not drawn) | > 50 µg/mL | 26 µg/mL (≈ 62.6 µM) | 31.4 µM | 40.6 µg/mL (≈ 97.8 µM) | > 50 µg/mL | – | –
24 | COc1ccc(N2CCN(CC(O)COc3cc(=O)oc4ccccc34)CC2)cc1 (stereo not drawn) | 0.355 µg/mL (≈ 0.865 µM) | 0.236 µg/mL (≈ 0.575 µM) | 0.57 µM | > 50 µg/mL | > 50 µg/mL | 198 µM | > 10 µg/mL
25 | O=C(COc1cc(=O)oc2ccccc12)N1CCN(c2ccccc2F)CC1 | > 50 µg/mL | 31.3 µg/mL (≈ 81.9 µM) | 43.2 µM | > 50 µg/mL | > 50 µg/mL | – | –
26 | O=c1cc(OCC(O)CN2CCN(c3cccc(C(F)(F)F)c3)CC2)c2ccccc2o1 (stereo not drawn) | 0.957 µg/mL (≈ 2.13 µM) | 1.08 µg/mL (≈ 2.4 µM) | 0.97 µM | > 50 µg/mL | > 50 µg/mL | 172 µM | > 10 µg/mL
27 | O=C(COc1cc(=O)oc2ccccc12)N1CCN(c2ccc(F)cc2)CC1 | 29.1 µg/mL (≈ 76.1 µM) | 34.8 µg/mL (≈ 91 µM) | 37.6 µM | > 50 µg/mL | > 50 µg/mL | – | –
28 | O=c1cc(OCC(O)CN2CCN(c3ccccc3F)CC2)c2ccccc2o1 (stereo not drawn) | > 50 µg/mL | > 50 µg/mL | 71.1 µM | > 50 µg/mL | > 50 µg/mL | – | –
29 | COc1cccc(N2CCN(CC(O)COc3cc(=O)oc4ccccc34)CC2)c1 (stereo not drawn) | 1.83 µg/mL (≈ 4.46 µM) | 0.612 µg/mL (≈ 1.49 µM) | 2.73 µM | > 50 µg/mL | 17.1 µg/mL (≈ 41.6 µM) | 178 µM | > 10 µg/mL
